Measurements reported in patent US8377915B2, “Methods for treating or preventing disorders using ecdysteroid compositions” (Rutgers, The State University of New Jersey, priority 2006, dated 2013).

Key:
Format in all cases: cell-based
[1] = test system: TM3 mouse Leydig cell line; experiment: cDNA microarray comparison of transcription, 20HE vs methandrostenolone, TM3 cells; conditions: 18 hours
Experimental: (§1) A transcriptome approach utilizing cDNA microarray was implemented to observe the unique effects of ecdysteroids. Microarray analyses was developed and implemented to discern the transcriptional differences between ecdysteroids and anabolic steroids.
(§2) A mouse Leydig cell line, TM3, (ATCC) was seeded between 5 and 20 passages at a density of 10^5 cells/cm^2 onto 10 cm tissue culture plates. The cells were grown in F12/DME media supplemented with 5% horse serum, 2.5% fetal bovine serum, 100 U/ml penicillin, and 100 μg/ml streptomycin.
(§3) Cells were grown for 48 hours in 5% CO2 at 37° C. until they approached 80% confluency. Cells were washed with serum free DMEM and treated with either 1 μM […] (20HE), or methandrostenolone (synthetic anabolic steroid). Both compounds were dissolved in 70% ethanol and added to serum free media. Cells were incubated after treatment for 18 hours before RNA extraction.
(§4) RNA was extracted and purified from C2C12 myoblasts and TM3 Leydig tumor line cells using an RNeasy kit according to the manufacturer's instructions (Qiagen). RNA concentration and purity were assessed using a spectrophotometer. All RNA samples used had 260/280 ratios greater than 1.9.
(§5) A collection of 21,900 oligonucleotides was purchased from Compugen, Inc. Microarrays were printed on poly-L-lysine-coated glass slides using an OmniGrid microarrayer (GeneMachines, San Carlos, Calif.) and quill-type printing pins (Telichem, Sunnyvale, Calif.) following standard procedures. Fluorescent probes were prepared from 5 μg of total cellular RNA using the Genisphere 3DNA dendrimer system (Genisphere, Inc., Montvale, N.J.). Two separate microarrays, one for each cell line, were run. The ecdysone treated RNA sample was labeled with Cy3 and the methandrostenelone treated RNA sample was labeled with Cy5 in a parallel reaction, mixed, and hybridized to the chips. Automated microarray hybridization and washing were performed using a Ventana Discovery System. The sequence-tagged target was hybridized for 12 hours at 58° C., and microarrays were washed twice in […] for 10 minutes at 55° C. and once in […] for 2 minutes at 42° C. Florescent dendrimer was then applied and incubated at 55° C. for 2 hours. The microarrays were then washed with […] and spin-dried, followed by scanning on an Axon GenePix 4000B. Image files were processed using Axon GenePix 4.0 software, resulting in text files containing median fluorescence intensities as well as median local backgrounds. Normalized data were imported along with spot flag information into GeneSpring where the ratios were calculated.

[2] = test system: C2C12 mouse skeletal muscle cell line; experiment: cDNA microarray comparison of transcription, 20HE vs methandrostenolone, C2C12 cells; conditions: 18 hours
Experimental: as §1
(§6) A mouse skeletal muscle cell line, C2C12, (ATCC) was seeded between 4 and 20 passages at a density of 10^5 cells/cm^2 onto 10 cm tissue culture plates. The cells were grown in DMEM supplemented with 10% Fetal Bovine Serum, 10 mM HEPES, 6 mM Glutamine, 1 mM pyruvate, 100 U/ml penicillin, and 100 ug/ml streptomycin.
as §3, §4, §5

mouse growth hormone [3] = experiment: Real Time RT-PCR of growth hormone expression in C2C12 cells; conditions: for effect on growth hormone expression (in words): C2C12; for Growth Hormone Expression relative to Control: C2C12, 1 μM, Real Time RT-PCR, normalized to GAPDH
Experimental: as §6, §3
(§7) Selected microarray results were verified by comparison with mRNA levels obtained by Real Time reverse transcription PCR (qRT-PCR). Selected gene-specific primer pairs were designed for the mouse growth hormone and glyceraldehyde-3-phosphate dehydrogenase genes using the Primer Express software, as shown in Table 3. Total RNA was isolated, DNase I-treated, and first-strand cDNA was synthesized using Stratascript reverse transcriptase with random primers. The PCR reactions were carried out using 500 ng of cDNA, 150 nM of each primer, and SYBR Green master mix in 25 μL reactions. Levels of quantitative reverse transcription product were measured using SYBR Green fluorescence collected during real-time PCR on a Stratagene MXP3000 sequence detection system. A control cDNA dilution series was created for each gene to establish a standard curve. Reverse transcriptase was excluded from control samples to identify potential genomic contamination. Each reaction was subjected to melting point analysis to confirm single amplified products. The data generated from each PCR were analyzed using MXP 3000 software.
(§8) Quantitative real time PCR was used to verify the microarray results for growth hormone. RNA samples from each treatment were reverse-transcribed into cDNA and amplified using real time PCR. Values for growth hormone were normalized to values obtained for the housekeeping gene, glyceraldehyde-3-phosphate dehydrogenase, and the ratios of the two treatments were calculated. In both the C2C12 and TM3 cell lines differential expression was qualitatively confirmed.
(§9) Using the ΔΔCt method, relative expression was calculated.

mouse growth hormone [4] = experiment: Real Time RT-PCR of growth hormone expression in TM3 cells; conditions: for effect on growth hormone expression (in words): TM3; for Growth Hormone Expression relative to Control: TM3, 1 μM; for change in growth hormone expression over time (in words): TM3, treated 20 minutes to 24 hours
Experimental: as §2, §3, §7, §8, §9
To further investigate the effects of 20-HE, the TM3 leydig cell line was treated for varying intervals, from 20 minutes to 24 hours, with either 20-HE or methandrostenolone. Growth hormone expression was than analyzed using real time PCR as mentioned earlier.

[5] = Real Time RT-PCR, normalized to GAPDH

For `CC(C)(O)CC[C@@H](O)[C@](C)(O)[C@H]1CC[C@@]2(O)C3=CC(=O)[C@@H]4C[C@@H](O)[C@@H](O)C[C@]4(C)[C@H]3CC[C@]12C` [20-Hydroxyecdysone, 20-hydroxyecdysone], the “20E/D Expr: Growth hormone” value ([1]; TM3, 1 μM, expression ratio 20HE to methandrostenolone, LL 14599) was 7.006, the “20E/D Expr: Insulin II” value ([1]; TM3, 1 μM, expression ratio 20HE to methandrostenolone, LL 16334) was 0.262 and the “20E/D Expr: Nuclear receptor subfamily 4, group A, member 2” value ([1]; TM3, 1 μM, expression ratio 20HE to methandrostenolone, LL 18227) was 0.010. For the same compound, the “20E/D Expr: Chemokine (C-C motif) ligand 20” value ([1]; TM3, 1 μM, expression ratio 20HE to methandrostenolone, LL 20297) was 11.89, the “20E/D Expr: Signal transducer and activator of transcription 1” value ([1]; TM3, 1 μM, expression ratio 20HE to methandrostenolone, LL 20846) was 0.052 and the “20E/D Expr: Steroid sulfatase” value ([1]; TM3, 1 μM, expression ratio 20HE to methandrostenolone, LL 20905) was 4.611. For the same compound, the “20E/D Expr: Insulin receptor-related receptor” value ([1]; TM3, 1 μM, expression ratio 20HE to methandrostenolone, LL 23920) was 0.022, the “20E/D Expr: Osteomodulin” value ([1]; TM3, 1 μM, expression ratio 20HE to methandrostenolone, LL 27047) was 0.010 and the “20E/D Expr: Ndufs3” value ([1]; TM3, 1 μM, expression ratio 20HE to methandrostenolone, LL 68349) was 4.741. For the same compound, the “genes down-regulated more than 2 fold as compared to methandrostenolone” value ([1]; TM3, microarray, 1 μM) was 341 genes, the “genes up-regulated more than 2 fold as compared to methandrostenolone” value ([1]; TM3, microarray, 1 μM) was 287 genes and the “increase of growth hormone expression more than methandrostenolone” value ([1]; TM3, microarray, 1 μM) was 7.0 times. The “20E/D Expr: Annexin A5” value ([2]; C2C12, 1 μM, expression ratio 20HE to methandrostenolone, LL 11747) was 11.90, the “20E/D Expr: Cholecystokinin” value ([2]; C2C12, 1 μM, expression ratio 20HE to methandrostenolone, LL 12424) was 0.010 and the “20E/D Expr: Fas death domain-associated protein” value ([2]; C2C12, 1 μM, expression ratio 20HE to methandrostenolone, LL 13163) was 0.010. The “20E/D Expr: Fibroblast growth factor 11” value ([2]; C2C12, 1 μM, expression ratio 20HE to methandrostenolone, LL 14166) was 0.010, the “20E/D Expr: Growth hormone” value ([2]; C2C12, 1 μM, expression ratio 20HE to methandrostenolone, LL 14599) was 3.163 and the “20E/D Expr: Histocompatibility 2, D region locus 1” value ([2]; C2C12, 1 μM, expression ratio 20HE to methandrostenolone, LL 14964) was 6.771. The “20E/D Expr: Hexokinase 2” value ([2]; C2C12, 1 μM, expression ratio 20HE to methandrostenolone, LL 15277) was 0.010, the “20E/D Expr: mago-nashi homolog, proliferation-associated” value ([2]; C2C12, 1 μM, expression ratio 20HE to methandrostenolone, LL 17149) was 3.708 and the “20E/D Expr: Insulin receptor-related receptor” value ([2]; C2C12, 1 μM, expression ratio 20HE to methandrostenolone, LL 23920) was 0.020. For the same compound, the “genes down-regulated more than two fold as compared to methandrostenolone” value ([2]; C2C12, microarray, 1 μM) was 479 genes, the “genes up-regulated more than 2-fold as compared to methandrostenolone” value ([2]; C2C12, microarray, 1 μM) was 278 genes and the “increase of growth hormone expression more than methandrostenolone” value ([2]; C2C12, microarray, 1 μM) was 3.2 times. The “effect on growth hormone expression (in words)” value (“effect” below) (mouse growth hormone [3]) was “increased expression of GH”, the “Growth Hormone Expression relative to Control” value (mouse growth hormone [3]) was 3.9 ± 0.9 and the “effect” value (mouse growth hormone [4]) was “increased expression of GH”. For the same compound, the “Growth Hormone Expression relative to Control” value (mouse growth hormone [4]; [5]) was 7.1 ± 1.2, the “Growth Hormone Expression relative to Control” value (mouse growth hormone [4]; incubation time 20 m) was 0.9 and the “Growth Hormone Expression relative to Control” value (mouse growth hormone [4]; incubation time 45 m) was 3.5. For the same compound, the “Growth Hormone Expression relative to Control” value (mouse growth hormone [4]; incubation time 1 hr) was 7.3, the “Growth Hormone Expression relative to Control” value (mouse growth hormone [4]; incubation time 2 hr) was 6.9 and the “Growth Hormone Expression relative to Control” value (mouse growth hormone [4]; incubation time 4 hr) was 7.2. The “Growth Hormone Expression relative to Control” value (mouse growth hormone [4]; incubation time 24 hr) was 7 and the “change in growth hormone expression over time (in words)” value (mouse growth hormone [4]) was “increased growth hormone expression over time, beginning after 45 minute and remaining increased after 24 hours”.
With `C[C@]12C=CC(=O)C=C1CC[C@@H]1[C@@H]2CC[C@@]2(C)[C@H]1CC[C@]2(C)O` [Methandrostenolone, methandrostenolone, reference compound] the “effect” value (mouse growth hormone [3]) was “little or no effect”, the “Growth Hormone Expression relative to Control” value (mouse growth hormone [3]) was 0.8 ± 0.5 and the “effect” value (mouse growth hormone [4]) was “little or no effect”. For the same compound, the “Growth Hormone Expression relative to Control” value (mouse growth hormone [4]; [5]) was 2.3 ± 1.4, the “Growth Hormone Expression relative to Control” value (mouse growth hormone [4]; incubation time 20 m) was 1.2 and the “Growth Hormone Expression relative to Control” value (mouse growth hormone [4]; incubation time 45 m) was 1.9. The “Growth Hormone Expression relative to Control” value (mouse growth hormone [4]; incubation time 1 hr) was 2.5, the “Growth Hormone Expression relative to Control” value (mouse growth hormone [4]; incubation time 2 hr) was 1.7 and the “Growth Hormone Expression relative to Control” value (mouse growth hormone [4]; incubation time 4 hr) was 2.1. The “Growth Hormone Expression relative to Control” value (mouse growth hormone [4]; incubation time 24 hr) was 2.3 and the “change in growth hormone expression over time (in words)” value (mouse growth hormone [4]) was “very little change”.
